One may read the melting point as the temperature of the solid-liquid transition.

The molecule `CCCC(CCC)c1ccc(OCc2ccc(-c3csc(CN(CCN)C(=O)c4ccc(C(=O)O)cn4)n3)cc2)cc1.Cl` yielded a melting point of 227 to 229 °C.

Consider `CCCC(CCC)c1ccc(OCc2ccc(-c3csc(COc4cncc(C(=O)O)c4)c3)cc2)cc1.Cl`, for which the melting point fell in the range of 170 to 173 °C.

Molecule `CCC(CC)c1ccc(N(Cc2ccc(-c3csc(COc4ccc(C(=O)O)cc4)n3)cc2)C(C)C)cc1` [Example 1-2] registered a melting point of 219 °C.

In turn, `CCC(CC)c1ccc(N(Cc2ccc(-c3csc(COc4ccc(C(=O)O)cn4)n3)cc2)C(C)C)cc1` [Example 1-3] came in with a melting point of 177 to 181 °C.

Regarding `CCCC(CCC)c1ccc(N(C)Cc2ccc(-c3csc(COc4cncc(C(=O)O)c4)n3)cc2)cc1` [Example 1-4], the melting point lay within 135 to 138 °C.

As to `CCCC(CCC)c1ccc(N(C)Cc2ccc(-c3csc(COc4ccc(C(=O)O)cc4)n3)cc2)cc1` [Example 1-5], the melting point fell in the range of 161 to 163 °C.

In the case of `CCCC(CCC)N(Cc1ccc(-c2csc(COc3ccc(C(=O)O)cn3)n2)cc1)c1ccc(C(C)C)cc1` [Example 1-6], the melting point is 141 to 143 °C.

Turning to `CCCC(CCC)N(Cc1ccc(-c2csc(COc3cncc(C(=O)O)c3)n2)cc1)c1ccc(C(C)C)cc1` [Example 1-7], the melting point lay within 184 to 185 °C.

In turn, `CC(C)CN(Cc1ccc(-c2csc(COc3cncc(C(=O)O)c3)n2)cc1)c1ccc(C(C)C)cc1` [Example 1-8] displayed a melting point of 196 to 197 °C.

`CCCC(CCC)N(Cc1ccc(-c2csc(COc3ccc(C(=O)O)cc3)n2)cc1)c1ccc(C(C)C)cc1` [Example 1-9] displayed a melting point of 166 to 168 °C.

For the molecule `CCCC(CCC)N(Cc1ccc(-c2csc(COc3cccc(C(=O)O)c3)n2)cc1)c1ccc(C(C)C)cc1` [Example 1-10], the melting point is 127 to 129 °C.

In the case of `CCC(CC)N(Cc1ccc(-c2csc(COc3ccc(C(=O)O)cn3)n2)cc1)c1ccc(C(C)C)cc1` [Example 1-11], the melting point lay in the range of 155 to 157 °C.

Regarding `CCC(CC)N(Cc1ccc(-c2csc(COc3cncc(C(=O)O)c3)n2)cc1)c1ccc(C(C)C)cc1` [Example 1-12], the melting point fell in the range of 110 to 114 °C.

The molecule `CCC(CC)c1ccc(N(Cc2ccc(-c3csc(CSc4ccc(C(=O)O)cc4)n3)cc2)C(C)C)cc1` [Example 1-13] displayed a melting point of 132.5 °C.

In turn, `CCCC(CCC)c1ccc(N(C)Cc2ccc(-c3csc(CSc4ccc(C(=O)O)cc4)n3)cc2)cc1` [Example 1-14] displayed a melting point of 122 to 124 °C.

As to `CCCC(CCC)c1ccc(N(C)Cc2ccc(-c3csc(CN(C)S(=O)(=O)CCCC(=O)[O-])n3)cc2)cc1.[Na+]` [Example 1-16], the melting point was in the range of 217 to 220 °C.

Molecule `CN(Cc1ccc(C(=O)O)cc1)c1nc(-c2ccc(CNc3ccc(C4CCCCC4)cc3)cc2)cs1` [Example 1-17] showed a melting point of 206 to 210 °C.

Regarding `CN(Cc1ccc(-c2csc(N(C)Cc3ccc(C(=O)O)cc3)n2)cc1)c1ccc(C2CCCCC2)cc1` [Example 1-18], the melting point was in the range of 190 to 192 °C.

For `CCC(CC)c1ccc(N(Cc2ccc(-c3csc(N(C)Cc4ccc(C(=O)O)cc4)n3)cc2)C(C)C)cc1` [Example 1-20], the melting point was 150 to 153 °C.

`CCC(CC)c1ccc(N(Cc2ccc(-c3csc(CN(C)[C@@H](Cc4ccccc4)C(=O)O)n3)cc2)C(C)C)cc1` [Example 1-22] returned a melting point of 80 °C.

Regarding `CC(C)CN(Cc1ccc(-c2csc(CN(CC(=O)O)Cc3ccccc3)n2)cc1)c1ccc(C(C)(C)C)cc1` [Example 1-23], the melting point was 133 °C.

`CC(C)CN(Cc1ccc(-c2csc(CN(CC(=O)O)Cc3ccccc3)n2)cc1)c1ccc(Cl)cc1` [Example 1-24] registered a melting point of 152 °C.

In turn, `CC(C)CN(Cc1ccc(-c2csc(CN(CC(=O)O)C(=O)Nc3ccccc3)n2)cc1)c1ccc(C(C)(C)C)cc1` [Example 1-27] yielded a melting point of 119 °C.

As for `CC(C)CN(Cc1ccc(-c2csc(CN(CC(=O)O)C(=O)c3ccccc3)n2)cc1)c1ccc(C(C)(C)C)cc1` [Example 1-28], the melting point was determined as 147 °C.

`CC(C)CN(Cc1ccc(-c2csc(CN(CC(=O)O)C(=O)c3ccccn3)n2)cc1)c1ccc(C(C)(C)C)cc1` [Example 1-29] registered a melting point of 160 °C.

`CC(C)CN(Cc1ccc(-c2csc(CN(CC(=O)O)C(=O)c3cccnc3)n2)cc1)c1ccc(C(C)(C)C)cc1` [Example 1-30] registered a melting point of 193 °C.

Consider `CC(C)CN(Cc1ccc(-c2csc(CN(CC(=O)O)S(=O)(=O)c3ccccc3)n2)cc1)c1ccc(C(C)(C)C)cc1` [Example 1-31], for which the melting point stood at 168.5 °C.

`CCC(CC)c1ccc(N(Cc2ccc(-c3csc(CN4Cc5ccccc5CC4C(=O)O)n3)cc2)C(C)C)cc1` (centres unmarked) [Example 1-32] registered a melting point of 127.5 °C.

As to `CCC(CC)N(Cc1ccc(-c2csc(CN3Cc4ccccc4C[C@H]3C(=O)O)n2)cc1)c1ccc(C(C)C)cc1` [Example 1-35], the melting point fell in the range of 110 to 113 °C.

Molecule `CCC(C)(C)c1ccc(OCc2ccc(-c3csc(N(C)Cc4ccc(C(=O)O)cc4)n3)cc2)cc1` [Example 1-38] gave a melting point of 155 to 157 °C.

In turn, `CCCC(CCC)c1ccc(OCc2ccc(-c3csc(CN(C)[C@@H](Cc4ccccc4)C(=O)O)n3)cc2)cc1` [Example 1-42] came in with a melting point of 114 to 118 °C.

Turning to `Cc1ccc(OCc2ccc(-c3csc(CN(CC(=O)O)Cc4ccccc4)n3)cc2)c(C(C)(C)C)c1` [Example 1-43], the melting point was 146 °C.

The molecule `CCCC(CCC)c1ccc(OCc2ccc(-c3csc(CN4Cc5ccccc5C[C@H]4C(=O)O)n3)cc2)cc1` [Example 1-46] yielded a melting point of 77 to 82 °C.

Molecule `CCCC(CCC)c1ccc(OCc2ccc(-c3csc(CN4Cc5ccccc5C[C@@H]4C(=O)O)n3)cc2)cc1` [Example 1-47] had a melting point of 77 to 82 °C.

Take `CCCC(CCC)c1ccc(OCc2ccc(-c3csc(COc4ccc(C(=O)O)cc4)n3)cc2)cc1` [Example 1-49]: the melting point fell in the range of 199 to 202 °C.

With `CCCC(CCC)c1ccc(OCc2ccc(-c3csc(CN(C)S(=O)(=O)CCCC(=O)O)n3)cc2)cc1` [Example 1-51], the melting point is 103.3 to 106.3 °C.

Regarding `CN(c1ccc(C(=O)O)cc1)c1nc(-c2ccc(C(=O)Nc3ccc(C4CCCCC4)cc3)cc2)cs1` [Example 1-52], the melting point is 250 °C (dec.).

Consider `CCCC(CCC)c1ccc(NC(=O)c2ccc(-c3csc(CN(CC(=O)O)Cc4ccccc4)n3)cc2)cc1` [Example 1-54], for which the melting point is 201 to 202 °C.

In the case of `CCCC(CCC)c1ccc(CNC(=O)c2ccc(-c3csc(CN(CC(=O)O)Cc4ccccc4)n3)cc2)cc1` [Example 1-55], the melting point was 141 to 143 °C.

Regarding `CCCC(CCC)c1ccc(CN(C)C(=O)c2ccc(-c3csc(CN(CC(=O)O)Cc4ccccc4)n3)cc2)cc1` [Example 1-56], the melting point was 65 to 71 °C.

`CCCC(CCC)c1ccc(CN(CC)C(=O)c2ccc(-c3csc(CN(CC(=O)O)Cc4ccccc4)n3)cc2)cc1` [Example 1-57]: the melting point was in the range of 59 to 65 °C.

Regarding `CC(C)CN(Cc1ccc(-c2csc(CN(CC(=O)O)C(=O)N3CCOCC3)n2)cc1)c1ccc(C(C)(C)C)cc1` [Example 1-59], the melting point is 138 °C.

As for `CCC(CC)c1ccc(N(Cc2ccc(-c3csc(COc4cc(OC)cc(C(=O)O)c4)n3)cc2)C(C)C)cc1` [Example 1-63], the melting point was 131 °C.

In the case of `CCCC(CCC)c1ccc(N(Cc2ccc(-c3csc(COc4cncc(C(=O)O)c4)n3)cc2)C(C)C)cc1.[Na+]` [Example 1-68], the melting point was 185 °C (dec.).

Regarding `CCC(CC)CN(Cc1ccc(-c2csc(COc3cncc(C(=O)O)c3)n2)cc1)c1ccc(C(C)C)cc1` [Example 1-74], the melting point came to 181 °C.

`CCCC(CCC)c1ccc(OCc2ccc(-c3csc(COc4ncccc4C(=O)O)n3)cc2)cc1` [Example 1-76] displayed a melting point of 154.5 °C.

On to `CCCC(CCC)c1ccc(OCc2ccc(-c3csc(COc4cccnc4C(=O)O)n3)cc2)cc1` [Example 1-82], for which the melting point was 138.5 °C (dec.).

Molecule `CCC(CC)c1ccc(N(Cc2ccc(-c3csc(COc4cncc(C(=O)OC)c4)n3)cc2)C(C)C)cc1` [Example 1-89] displayed a melting point of 111 to 113 °C.

Take `CCC(CC)c1ccc(N(Cc2ccc(-c3csc(COc4cc(C(=O)O)ccc4N)n3)cc2)C(C)C)cc1` [Example 1-90]: the melting point lay within 179 to 181 °C.

The molecule `CCC(CC)c1ccc(N(Cc2ccc(-c3csc(COc4cccc(C(=O)O)c4)n3)cc2)C(C)C)cc1` [Example 1-91] gave a melting point of 165 to 167 °C.

The molecule `CCC(CC)c1ccc(N(Cc2ccc(-c3csc(CNc4cccc(C(=O)O)c4)n3)cc2)C(C)C)cc1` [Example 1-92] displayed a melting point of 159 to 160 °C.

The molecule `CCC(CC)c1ccc(N(Cc2ccc(-c3csc(COc4cc(C(=O)O)ccc4[N+](=O)[O-])n3)cc2)C(C)C)cc1` [Example 1-93] returned a melting point of 198 to 200 °C.

Take `CCCC(CCC)c1ccc(OCc2ccc(-c3csc(CN(CC(=O)O)CC(=O)Nc4ccccc4)n3)cc2)cc1` [Example 1-95]: the melting point was determined as 149.5 °C.

`CCCC(CCC)c1ccc(OCc2ccc(-c3csc(CN(CC(=O)O)CC(=O)Nc4cccnc4)n3)cc2)cc1` [Example 1-96] registered a melting point of 162.5 °C.

In turn, `CCCC(CCC)c1ccc(OCc2ccc(-c3csc(CN(CC(=O)O)CC(=O)Nc4ccc(N(C)C)cc4)n3)cc2)cc1` [Example 1-97] showed a melting point of 192.5 °C.

Molecule `CCCC(CCC)c1ccc(OCc2ccc(-c3csc(CN(CC(=O)O)CC(=O)Nc4ccc(OC)cc4)n3)cc2)cc1` [Example 1-98] displayed a melting point of 176.5 °C.

For the molecule `CCCC(CCC)c1ccc(OCc2ccc(-c3csc(CN(CC(=O)O)CC(=O)N(c4ccccc4)C(C)C)n3)cc2)cc1` [Example 1-99], the melting point turned out to be 115.5 °C.

With `CCCC(CCC)c1ccc(OCc2ccc(-c3csc(CN(CC(=O)O)CC(=O)Nc4ccccn4)n3)cc2)cc1` [Example 1-100], the melting point is 133.5 °C.

As to `CCCC(CCC)c1ccc(N(Cc2ccc(-c3csc(COc4cc(C(=O)O)ccc4NC(C)=O)n3)cc2)C(C)C)cc1` [Example 1-108], the melting point was 129 to 131 °C.

The record behind these values is US20060122181A1, “Heteroaromatic pentacyclic compound and medicinal use thereof” (Japan Tobacco Inc., priority 2003, published 2006).
